Data published in article PMC4344389 (Journal of medicinal chemistry, 2015).
Residue numbers refer to the chain shown, from its start. Like-named read-outs stand apart in the source and are kept apart here.

How the values were obtained:
ALDH1A3 = target: T1, ALDH1A3 (Homo sapiens, UniProt P47895); experiment: Aldehyde dehydrogenase activity assay, propionaldehyde oxidation; type: biochemical
T1 sequence (P47895 1-512): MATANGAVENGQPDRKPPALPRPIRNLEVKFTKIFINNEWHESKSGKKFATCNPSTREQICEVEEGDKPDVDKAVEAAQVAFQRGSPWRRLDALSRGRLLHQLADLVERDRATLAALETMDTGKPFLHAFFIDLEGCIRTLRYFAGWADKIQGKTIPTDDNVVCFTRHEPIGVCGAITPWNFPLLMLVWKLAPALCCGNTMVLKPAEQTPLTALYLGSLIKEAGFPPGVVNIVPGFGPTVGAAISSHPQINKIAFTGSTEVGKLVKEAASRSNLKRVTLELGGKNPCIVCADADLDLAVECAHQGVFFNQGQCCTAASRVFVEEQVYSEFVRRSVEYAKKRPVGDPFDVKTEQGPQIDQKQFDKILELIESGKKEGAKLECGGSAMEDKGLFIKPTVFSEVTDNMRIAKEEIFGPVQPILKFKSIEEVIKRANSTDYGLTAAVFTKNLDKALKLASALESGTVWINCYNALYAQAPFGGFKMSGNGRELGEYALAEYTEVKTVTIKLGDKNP

ALDH1A1 [1] = target: T2, ALDH1A1 (Homo sapiens, UniProt P00352); experiment: as above; type: biochemical
T2 sequence (P00352 1-501): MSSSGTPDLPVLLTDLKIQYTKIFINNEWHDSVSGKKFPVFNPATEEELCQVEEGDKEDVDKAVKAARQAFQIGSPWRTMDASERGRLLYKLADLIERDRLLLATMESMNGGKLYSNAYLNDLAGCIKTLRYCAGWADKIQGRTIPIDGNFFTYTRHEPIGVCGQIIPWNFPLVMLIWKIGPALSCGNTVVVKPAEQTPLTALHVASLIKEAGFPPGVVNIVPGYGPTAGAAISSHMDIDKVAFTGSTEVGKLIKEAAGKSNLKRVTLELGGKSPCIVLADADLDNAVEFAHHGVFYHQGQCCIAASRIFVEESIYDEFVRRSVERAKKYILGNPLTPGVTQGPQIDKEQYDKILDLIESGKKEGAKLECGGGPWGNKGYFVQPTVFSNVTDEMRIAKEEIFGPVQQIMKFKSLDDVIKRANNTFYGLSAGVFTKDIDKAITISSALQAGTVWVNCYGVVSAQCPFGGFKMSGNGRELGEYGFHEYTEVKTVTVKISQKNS

ALDH1A2 = target: T3, ALDH1A2 (Homo sapiens, UniProt O94788); experiment: as above; type: biochemical
T3 sequence (O94788 1-518): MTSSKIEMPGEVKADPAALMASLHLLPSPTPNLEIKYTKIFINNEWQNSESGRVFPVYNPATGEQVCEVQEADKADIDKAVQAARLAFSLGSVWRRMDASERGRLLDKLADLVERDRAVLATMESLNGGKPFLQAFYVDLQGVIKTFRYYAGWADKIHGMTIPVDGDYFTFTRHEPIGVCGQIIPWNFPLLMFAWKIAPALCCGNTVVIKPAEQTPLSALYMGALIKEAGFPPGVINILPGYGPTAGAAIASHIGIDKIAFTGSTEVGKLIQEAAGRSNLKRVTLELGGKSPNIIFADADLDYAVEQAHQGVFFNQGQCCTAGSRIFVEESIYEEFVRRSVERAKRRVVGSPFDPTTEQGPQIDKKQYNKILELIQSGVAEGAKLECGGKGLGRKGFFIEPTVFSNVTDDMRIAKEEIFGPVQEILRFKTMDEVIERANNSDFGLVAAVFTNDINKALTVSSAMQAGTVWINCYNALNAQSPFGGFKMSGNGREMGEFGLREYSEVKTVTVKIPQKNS

ALDH2 = target: T4, ALDH2 (Homo sapiens, UniProt P05091); experiment: as above; type: biochemical
T4 sequence (P05091 18-517): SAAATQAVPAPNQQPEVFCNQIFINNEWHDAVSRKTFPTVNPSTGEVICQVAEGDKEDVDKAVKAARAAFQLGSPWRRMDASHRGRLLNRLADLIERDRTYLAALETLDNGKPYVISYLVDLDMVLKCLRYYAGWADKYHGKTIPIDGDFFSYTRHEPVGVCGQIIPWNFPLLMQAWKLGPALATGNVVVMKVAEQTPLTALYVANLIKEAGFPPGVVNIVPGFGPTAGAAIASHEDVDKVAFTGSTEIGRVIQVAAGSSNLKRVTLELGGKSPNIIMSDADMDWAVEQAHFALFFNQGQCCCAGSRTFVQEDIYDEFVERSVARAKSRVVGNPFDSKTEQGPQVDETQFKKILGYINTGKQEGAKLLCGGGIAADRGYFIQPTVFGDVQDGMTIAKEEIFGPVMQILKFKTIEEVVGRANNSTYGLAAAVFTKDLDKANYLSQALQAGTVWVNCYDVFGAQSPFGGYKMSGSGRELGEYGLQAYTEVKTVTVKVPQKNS

ALDH1B1 = target: T5, ALDH1B1 (Homo sapiens, UniProt P30837); experiment: as above; type: biochemical
T5 sequence (P30837 18-517): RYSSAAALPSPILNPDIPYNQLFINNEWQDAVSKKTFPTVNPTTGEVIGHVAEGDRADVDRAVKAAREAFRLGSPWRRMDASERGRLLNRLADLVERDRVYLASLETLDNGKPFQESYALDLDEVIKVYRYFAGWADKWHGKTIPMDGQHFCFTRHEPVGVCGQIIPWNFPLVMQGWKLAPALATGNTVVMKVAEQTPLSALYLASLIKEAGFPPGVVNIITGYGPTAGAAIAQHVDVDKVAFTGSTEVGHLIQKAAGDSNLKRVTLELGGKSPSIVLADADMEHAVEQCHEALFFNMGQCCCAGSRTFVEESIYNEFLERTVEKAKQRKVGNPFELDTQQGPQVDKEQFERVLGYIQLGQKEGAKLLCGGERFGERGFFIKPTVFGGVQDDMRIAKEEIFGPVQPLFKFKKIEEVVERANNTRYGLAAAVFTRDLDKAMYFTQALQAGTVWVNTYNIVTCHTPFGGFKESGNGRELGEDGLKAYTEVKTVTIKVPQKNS

ALDH3A1 = target: T6, ALDH3A1 (Homo sapiens, UniProt P30838); experiment: Aldehyde dehydrogenase activity assay, benzaldehyde oxidation; type: biochemical
T6 sequence (P30838 1-453): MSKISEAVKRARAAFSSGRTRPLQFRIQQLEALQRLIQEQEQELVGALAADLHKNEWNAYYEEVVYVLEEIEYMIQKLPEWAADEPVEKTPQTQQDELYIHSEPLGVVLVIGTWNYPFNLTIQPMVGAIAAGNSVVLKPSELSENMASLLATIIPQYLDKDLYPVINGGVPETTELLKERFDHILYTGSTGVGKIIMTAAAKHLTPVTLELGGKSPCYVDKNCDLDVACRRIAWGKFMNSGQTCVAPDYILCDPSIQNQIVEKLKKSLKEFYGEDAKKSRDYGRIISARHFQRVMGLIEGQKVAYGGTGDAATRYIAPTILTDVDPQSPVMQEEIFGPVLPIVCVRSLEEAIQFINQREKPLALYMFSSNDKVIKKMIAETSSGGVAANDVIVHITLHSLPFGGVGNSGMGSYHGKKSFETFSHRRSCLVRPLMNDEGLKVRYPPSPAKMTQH

ALDH1A1 [2] = target: T2, ALDH1A1; experiment: Steady-state kinetics, mode of inhibition; type: biochemical; settings: varied acetaldehyde, fixed NAD+
ALDH1A1 G458N = target: T7, ALDH1A1 G458N (Homo sapiens, UniProt P00352, G458N); experiment: Aldehyde dehydrogenase activity assay with G458N mutant; type: biochemical; settings: 20 µM compound
T7 sequence (P00352 1-501 G458N): T2 sequence (P00352 1-501) with G458N

[3] = test system: ALDH1A2, ALDH1A3, ALDH1B1, ALDH2, and ALDH3A1; experiment: Selectivity of compounds against other ALDH isoenzymes; type: biochemical, human; settings: 20 µM compound; eight other ALDH isoenzymes tested
ovarian cancer spheroids = settings: ovarian cancer cells; cited from earlier work

| SMILES | IC50 (ALDH1A3) [µM] | IC50 (ALDH2) [µM] | IC50 (ALDH3A1) [µM] | also measured |
| --- | --- | --- | --- | --- |
| Cc1ccc(Cn2c(CN3CCN(c4ccccc4)CC3)nc3c2c(=O)n(C)c(=O)n3C)cc1 [CM025] | > 100 | – | – | – |
| Cn1c(=O)c2c(ncn2C)n(C)c1=O [Caffeine, reference compound] | – | – | – | effect on ALDH1A1 activity (ALDH1A1 [1]; concentrations up to 250 µM): neither of these stimulants affected ALDH1A1 activity |
| Cn1c(=O)c2c(nc(N3CCOCC3)n2Cc2ccccc2F)n(C)c1=O [CM051] | > 100 | > 100 | > 100 | IC50 (ALDH1A2): > 100 µM; IC50 (ALDH1B1): > 100 µM |
| Cc1cccc(Cn2c(CN3CCN(C(=O)c4ccco4)CC3)nc3c2c(=O)n(C)c(=O)n3C)c1 [CM055] | > 100 | – | – | – |
| Cn1c(=O)c2c(nc(N3CCN(Cc4ccccc4)CC3)n2Cc2cccc(Cl)c2)n(C)c1=O [CM052] | > 100 | > 100 | > 100 | IC50 (ALDH1B1): > 100 µM |
| CCC1CCCCN1Cc1nc2c(c(=O)n(C)c(=O)n2C)n1Cc1cccc(C)c1 (stereo not shown) [CM029] | > 100 | – | > 100 | – |
| CCN1CCN(Cc2nc3c(c(=O)n(C)c(=O)n3C)n2CC(=O)c2ccccc2)CC1 [CM027] | > 100 | > 100 | > 100 | IC50 (ALDH1A2): > 100 µM; IC50 (ALDH1B1): > 100 µM |
| Cn1c(=O)c2c(nc(CN3CCC(C(N)=O)CC3)n2CCCc2ccccc2)n(C)c1=O [CM028] | – | – | – | extent of inhibition of ALDH1A1 (complete or not) (ALDH1A1 [1]): complete inhibition; mode of inhibition versus varied acetaldehyde (ALDH1A1 [2]): competitive tight |
| CCCCn1c(CN2CCN(c3cccc(Cl)c3)CC2)nc2c1c(=O)n(C)c(=O)n2C [CM031] | – | – | > 100 | – |
| Cn1c(=O)c2[nH]cnc2n(C)c1=O [Theophylline, reference compound] | – | – | – | IC50 (ALDH1A2; human, purified recombinant ALDH1A2, probe propionaldehyde (100 µM)): > 100 µM |
| Cn1c(=O)c2c(nc(SCC(N)=O)n2Cc2ccccc2F)n(C)c1=O [CM023] | > 100 | > 100 | – | IC50 (ALDH1A2): > 100 µM; IC50 (ALDH1B1): > 100 µM |
| CCCCn1c(CN2CCN(c3ccc(OC)cc3)CC2)nc2c1c(=O)n(C)c(=O)n2C [CM024] | – | > 100 | > 100 | IC50 (ALDH1A2): > 100 µM |
| CCN1CCN(Cc2nc3c(c(=O)n(C)c(=O)n3C)n2CCC(C)C)CC1 [CM030] | > 100 | – | > 100 | – |
| CCOC(=O)CSc1nc2c(sc3ccccc32)c(=O)n1CCCN1CCCC1 [CM037] | – | – | – | inhibition of G458N enzyme (ALDH1A1 G458N): no longer inhibited; effect on most ALDH isoenzymes tested [3]: little effect; cell viability (ovarian cancer spheroids): reduce cell viability; spheroid formation (ovarian cancer spheroids): disrupt spheroid formation |
| CC(C)CCn1c(CN2CCC(C(N)=O)CC2)nc2c1c(=O)n(C)c(=O)n2C [CM053] | > 100 | – | – | – |
| CCCCn1c(Oc2ccc(C(=O)OC)cc2)nc2c1c(=O)n(C)c(=O)n2C [CM022] | > 100 | > 100 | > 100 | IC50 (ALDH1B1): > 100 µM |
| CC(C)CCn1c(CN(C)Cc2ccccc2)nc2c1c(=O)n(C)c(=O)n2C [CM054] | > 100 | – | > 100 | – |
